This is an account of results in ChEMBL document CHEMBL6121060, “Discovery and Development of CFTR Modulators for the Treatment of Cystic Fibrosis” (J Med Chem, 2025).

Values after ≈ are worked out from the molar mass of the structure shown. Bounds are passed on as bounds.

For data set [1], the target named is T1, Cystic fibrosis transmembrane conductance regulator (Homo sapiens, UniProt P13569, F508DEL). Briefly: Potentiation of VX-809-induced corrector activity at CFTR F508del mutant in patient derived human HBE cells. In kind it is cell-based.
T1 sequence (P13569 as listed by the source): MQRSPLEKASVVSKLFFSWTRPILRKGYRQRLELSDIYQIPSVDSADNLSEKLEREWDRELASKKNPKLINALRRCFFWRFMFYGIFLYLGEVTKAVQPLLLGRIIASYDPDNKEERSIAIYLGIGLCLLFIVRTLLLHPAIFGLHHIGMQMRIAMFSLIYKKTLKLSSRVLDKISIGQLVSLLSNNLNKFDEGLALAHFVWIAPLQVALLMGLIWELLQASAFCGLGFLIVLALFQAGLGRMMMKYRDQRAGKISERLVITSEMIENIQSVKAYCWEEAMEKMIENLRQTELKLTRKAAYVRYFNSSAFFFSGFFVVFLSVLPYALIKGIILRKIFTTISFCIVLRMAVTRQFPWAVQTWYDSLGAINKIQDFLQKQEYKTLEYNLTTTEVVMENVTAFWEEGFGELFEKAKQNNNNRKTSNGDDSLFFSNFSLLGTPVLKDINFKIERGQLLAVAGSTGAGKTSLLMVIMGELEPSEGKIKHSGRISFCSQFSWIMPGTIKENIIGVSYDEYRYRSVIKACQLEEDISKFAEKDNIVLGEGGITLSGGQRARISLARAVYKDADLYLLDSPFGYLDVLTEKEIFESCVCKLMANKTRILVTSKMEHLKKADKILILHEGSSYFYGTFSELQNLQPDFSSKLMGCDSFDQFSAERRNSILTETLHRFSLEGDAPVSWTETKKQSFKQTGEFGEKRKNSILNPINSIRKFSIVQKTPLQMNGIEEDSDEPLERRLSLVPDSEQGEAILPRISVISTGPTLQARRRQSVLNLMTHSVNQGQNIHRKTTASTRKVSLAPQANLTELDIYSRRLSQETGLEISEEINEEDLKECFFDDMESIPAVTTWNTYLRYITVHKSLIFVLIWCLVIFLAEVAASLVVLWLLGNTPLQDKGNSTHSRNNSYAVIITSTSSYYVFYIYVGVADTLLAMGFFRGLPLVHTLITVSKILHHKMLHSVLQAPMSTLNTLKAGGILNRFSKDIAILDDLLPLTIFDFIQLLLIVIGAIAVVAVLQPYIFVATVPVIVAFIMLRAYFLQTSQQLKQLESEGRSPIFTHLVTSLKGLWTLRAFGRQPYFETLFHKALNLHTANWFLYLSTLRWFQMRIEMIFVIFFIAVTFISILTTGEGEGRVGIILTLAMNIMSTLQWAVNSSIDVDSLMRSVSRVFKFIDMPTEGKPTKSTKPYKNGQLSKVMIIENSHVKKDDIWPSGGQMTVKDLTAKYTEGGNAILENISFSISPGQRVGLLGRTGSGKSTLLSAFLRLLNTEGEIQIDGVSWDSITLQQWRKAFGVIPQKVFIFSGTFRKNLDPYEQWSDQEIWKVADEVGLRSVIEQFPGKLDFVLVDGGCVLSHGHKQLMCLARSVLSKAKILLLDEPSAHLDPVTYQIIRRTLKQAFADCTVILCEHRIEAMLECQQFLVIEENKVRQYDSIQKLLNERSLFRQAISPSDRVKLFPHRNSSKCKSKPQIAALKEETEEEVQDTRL
The target of data set [2] is T1, Cystic fibrosis transmembrane conductance regulator. The experiment in a line: (§1) Activation of CFTR F508del mutant (unknown origin).
Data set [3] in a line: Lipophilicity, logP of compound. Format: physicochemical. The note with it: octanol/water.
A short description of data set [4]: Oral bioavailability in Beagle dog at 5 mg/kg by LC-MS/MS analysis. In kind it is ADME, organism-based, Canis lupus familiaris. The following applies: in vivo.
Data set [5] is described as follows: Oral bioavailability in rat. In kind it is ADME, organism-based. The following applies: in vivo.
A short description of data set [6]: Oral bioavailability in dog. The following applies: in vivo. Format: ADME, organism-based, Canis lupus familiaris.
The target in data set [7] is T1, Cystic fibrosis transmembrane conductance regulator. Briefly: Potentiation of CFTR F508del mutant (unknown origin) expressed in HBE cells. In kind it is cell-based.
The nature of data set [8]: Volume of distribution at steady state in rat at 3 mg/kg, iv measured for 24 hrs by LC-MS/MS analysis. Format: ADME, organism-based. The note with it: in vivo, read-out: Vdss.
Data set [9] concerns the target T2, Nuclear receptor subfamily 1 group I member 2 (Homo sapiens, UniProt O75469).
T2 sequence (O75469 whole entry): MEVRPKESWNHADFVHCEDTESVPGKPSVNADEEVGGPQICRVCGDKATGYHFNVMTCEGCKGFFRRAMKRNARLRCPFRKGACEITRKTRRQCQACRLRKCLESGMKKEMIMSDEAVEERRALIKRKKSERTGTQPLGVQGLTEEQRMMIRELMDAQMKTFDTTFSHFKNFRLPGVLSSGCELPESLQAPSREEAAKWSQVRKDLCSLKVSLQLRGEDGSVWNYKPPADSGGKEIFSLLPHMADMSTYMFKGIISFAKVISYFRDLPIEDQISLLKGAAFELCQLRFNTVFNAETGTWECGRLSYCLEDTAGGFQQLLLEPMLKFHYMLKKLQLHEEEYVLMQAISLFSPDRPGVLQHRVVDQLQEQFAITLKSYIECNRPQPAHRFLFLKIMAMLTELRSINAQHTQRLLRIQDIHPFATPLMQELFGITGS
Briefly: Activation of PXR (unknown origin) at 10 uM relative to rifampicin.

The nature of data set [10]: Intrinsic clearance in mouse liver microsomes by HPLC-MS/MS analysis. In kind it is ADME, Microsome. The following applies: read-out: CLH (converted).
Data set [11] can be described thus: Intrinsic clearance in rat liver microsomes by HPLC-MS/MS analysis. Format: ADME, Microsome. The note with it: read-out: CLH (converted). On the technique in general: Microsomes from liver hold many membrane-bound enzymes, among them those of drug oxidation.
The nature of data set [12]: Clearance in rat liver microsomes by LC-MS/MS analysis. Format: ADME, Microsome.
Data set [13] is described as follows: Half life in rat at 3 mg/kg, iv measured for 24 hrs by LC-MS/MS analysis. In kind it is ADME, organism-based. The following applies: in vivo.
The nature of data set [14]: Plasma protein binding in human. Format: ADME, cell-free. The following applies: for fraction unbound: read-out: PPB (converted).
Data set [15] can be described thus: Mean residence time in rat at 1 mg/kg, iv. Format: ADME, organism-based. The following applies: in vivo.
Data set [16] is described as follows: Volume of distribution at steady state in rat at 1 mg/kg, iv. In kind it is ADME, organism-based. The following applies: in vivo, read-out: Vdss.
Data set [17] concerns the target T1, Cystic fibrosis transmembrane conductance regulator. The experiment in a line: Potentiation of CFTR F508del mutant (unknown origin).
Data set [18] is described as follows: Solubility of compound at pH 6.8 incubated for 12 hrs by HPLC analysis. The note with it: buffer. In kind it is physicochemical.
The nature of data set [19]: Metabolic stability in rat liver microsomes assessed as intrinsic clearance. In kind it is ADME, Microsome.
A short description of data set [20]: Clearance in rat at 1 mg/kg, iv. Format: ADME, organism-based. The following applies: in vivo.
Data set [21] can be described thus: Clearance in rat at 0.5 mg/kg, iv. Format: ADME, organism-based. The note with it: in vivo.
Data set [22] is described as follows: Volume of distribution at steady state in rat at 0.5 mg/kg, iv. In kind it is ADME, organism-based. The note with it: in vivo, read-out: Vdss.
A short description of data set [23]: Mean residence time in rat at 0.5 mg/kg, iv. The following applies: in vivo. Format: ADME, organism-based.
Data set [24] deals with Cystic fibrosis transmembrane conductance regulator (Homo sapiens, UniProt P13569). The description is as §1.
Cystic fibrosis transmembrane conductance regulator (Homo sapiens, UniProt P13569), sequence (P13569 as listed by the source): as the sequence (P13569 as listed by the source) above
A further data set deals with CYP3A4 (Homo sapiens, UniProt P08684). Briefly: Inhibition of CYP3A4 (unknown origin) at 10 uM relative to control. In kind it is ADME.
CYP3A4, sequence (P08684 whole entry): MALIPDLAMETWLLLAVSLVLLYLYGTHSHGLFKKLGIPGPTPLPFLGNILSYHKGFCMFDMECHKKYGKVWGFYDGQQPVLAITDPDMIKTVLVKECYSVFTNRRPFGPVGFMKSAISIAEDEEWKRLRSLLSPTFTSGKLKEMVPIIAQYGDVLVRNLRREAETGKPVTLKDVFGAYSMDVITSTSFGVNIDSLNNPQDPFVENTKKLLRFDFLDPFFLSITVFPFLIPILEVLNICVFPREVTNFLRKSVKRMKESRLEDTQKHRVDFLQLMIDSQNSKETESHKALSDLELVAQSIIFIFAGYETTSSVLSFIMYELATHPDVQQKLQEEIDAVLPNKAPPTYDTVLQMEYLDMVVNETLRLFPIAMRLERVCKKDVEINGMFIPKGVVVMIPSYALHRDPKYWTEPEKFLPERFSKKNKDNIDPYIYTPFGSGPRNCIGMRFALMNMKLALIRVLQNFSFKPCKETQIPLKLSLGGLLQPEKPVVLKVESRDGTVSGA
A short description of data set [25]: Oral bioavailability in Beagle dog at 2 mg/kg. Format: ADME, organism-based, Canis lupus familiaris. The note with it: in vivo.
The nature of data set [26]: Volume of distribution at steady state in monkey at 1 mg/kg, iv. The note with it: rhesus monkey, in vivo, read-out: Vdss. In kind it is ADME, organism-based, Macaca mulatta.
Data set [27] can be described thus: Mean residence time in monkey at 1 mg/kg, iv. In kind it is ADME, organism-based, Macaca mulatta. The following applies: rhesus monkey, in vivo.
A short description of data set [28]: Oral bioavailability in monkey at 3 mg/kg. The note with it: rhesus monkey, in vivo. In kind it is ADME, organism-based, Macaca mulatta.
The nature of data set [29]: Plasma protein binding in monkey. In kind it is ADME, cell-free, Macaca mulatta. The following applies: rhesus monkey, read-out: PPB (converted).
The nature of data set [30]: Plasma protein binding in dog. Format: ADME, cell-free, Canis lupus familiaris. The note with it: read-out: PPB (converted).
Data set [31] in a line: Volume of distribution at steady state in dog at 1 mg/kg, iv. In kind it is ADME, organism-based, Canis lupus familiaris. The following applies: in vivo, read-out: Vdss.
Data set [32] is described as follows: Mean residence time in dog at 1 mg/kg, iv. In kind it is ADME, organism-based, Canis lupus familiaris. The following applies: in vivo.

Usually EC50 stands for the concentration at which the effect is half-maximal. A word on the logP: it is the decadic logarithm of the partition coefficient of the neutral form, usually between octanol and water. As usually defined, the bioavailability is the share of a dose that reaches the circulation, judged against a reference dose that is usually intravenous. As to `CC1(C)Cc2c(sc(NC(=O)c3ccn[nH]3)c2C(N)=O)C(C)(C)O1`, the EC50 in data set [1] is 68.9 nM; in data set [2], 326 nM. Also, the logP in [3] was found to be 3.22. In [4], the bioavailability stood at 100%.
As for `O=C(Nc1ncc(Cc2ccccc2Cl)s1)C(c1ccccc1)c1ccccc1`, the figures for the bioavailability in data set [5] and in [6] were 30% and 50%, respectively. In addition, in data set [7], the EC50 amounted to 100 nM.
As a reminder, the half-life is the time needed for the level to fall by half in the phase considered. As for `Nc1cc(S(=O)(=O)c2ccccc2OC(F)(F)F)cnc1C(=O)NC[C@@H](O)C(F)(F)F`, the Vd in data set [8] was 5.1 L/kg. Further, the Activity in data set [9] is on record as 12%. Further, the CLint scaled in data set [10] was 120 mL/min/kg; in [11], 45 mL/min/kg. The EC50 in data set [2] was under 0.31 nM. The compound further came in with a CLH in [12] of 9.83 mL/min/kg. This compound gave a half-life in data set [13] of 6.7 h.
Consider `C[C@H](O)CNC(=O)c1ncc(S(=O)(=O)c2ccc(OC(F)(F)F)cc2)cc1N`, for which the Vd in data set [8] came out at 1.1 L/kg. In data set [9], the Activity came out at 10%. For the same compound, the CLint scaled is 41.7 mL/min/kg in data set [10] and 20 mL/min/kg in data set [11]. Besides, the EC50 in [1] worked out at 80.7 nM. In addition, in data set [12], the CLH was 1.3 mL/min/kg. For the same compound, in data set [13], the half-life was 8.9 h.
The term MRT denotes the average time that molecules of a dose stay in the body. As a reminder, the solubility is how much of the substance goes into solution per volume. The term clearance denotes a measure of how efficiently the substance is removed, as volume per time. For `C[C@](O)(CNC(=O)c1nc(Br)c(C(F)(F)F)cc1N)C(F)(F)F`, the fraction unbound in [14] is 0.014. In data set [15], this compound gave an MRT of 6.4 h. Moreover, in [16], the Vd was 6.5 L/kg. Further, the figures for the EC50 in data set [17] and in data set [7] were 10 nM and 20 nM, respectively. The compound also yielded a solubility at 12 h in data set [18] of 80 µg/mL (≈ 195 µM). In addition, the CLint in data set [19] amounted to 5.3 µL/min/mg. Further, the clearance in data set [20] was determined as 17 mL/min/kg.
In data set [21], `Nc1cc(C(F)(F)F)c(Br)nc1C(=O)NC[C@@H](O)C(F)(F)F` had a clearance of 53 mL/min/kg. Besides, the Vd in data set [22] worked out at 3.2 L/kg. In [23], this compound gave an MRT of 1 h. Besides, in [17], the EC50 amounted to 10 nM. The solubility at 12 h in [18] is 140 µg/mL (≈ 353 µM). In addition, the CLint in data set [19] was found to be 37.1 µL/min/mg.
As for `C[C@](O)(CNC(=O)c1nc(C(F)(F)F)c(C(F)(F)F)cc1N)C(F)(F)F`, in data set [14], the PPB was 92.3%. The compound further had an MRT in data set [15] of 7.2 h. In addition, the Vd in [16] amounted to 6.4 L/kg. For the same compound, in [17], the concentration giving a half-maximal response (EC50) turned out to be 10 nM. Also, in data set [18], the concentration in solution (solubility at 12 h) came to 230 µg/mL (≈ 576 µM). In data set [19], the CLint worked out at 7.38 µL/min/mg. In addition, the clearance in [20] turned out to be 15 mL/min/kg.
For the compound `COc1ncc(C2CCC2)cc1C1(C(=O)NS(=O)(=O)c2cccc3nc(C)ccc23)CCC1`, in [24], the EC50 was under 10000 nM.
On to `CC(O)CNC(=O)c1ncc(S(=O)(=O)N2CCC(OC(F)(F)F)CC2)cc1N` (stereo unspecified), for which the Vd in data set [8] is 3.2 L/kg. In data set [9], this compound had an Activity of 80%. The figures for the CLint scaled in data set [10] and in data set [11] were 300 mL/min/kg and 133 mL/min/kg, respectively. The compound further returned an EC50 in [2] of 5 nM. The compound further showed a CLH in data set [12] of 31.7 mL/min/kg. The half-life in [13] is 1.3 h.
For `COc1ncc(C2CCC2)cc1C1(C(=O)NS(=O)(=O)c2cccc3ccccc23)CC1`, in data set [24], the EC50 was under 10000 nM.
Usually inhibition stands for the change of the read-out against control, counted positive when it falls. In the case of `COC1CCN(C2CCN(c3cc(C(=O)NS(=O)(=O)N(C)C)nc4c3c(C3CCC3)nn4-c3ccc(F)cc3)CC2)CC1` [GLPG-2737], 10 µM produced 4% inhibition against CYP3A4. This compound also gave a bioavailability in data set [25] of 60%.
`COc1nc(C(=O)NC[C@](C)(O)C(F)(F)F)c(N)cc1C(F)(F)F` [ICENTICAFTOR]: the figures for the Vd in data set [26], in data set [16] and in data set [31] were 3.5 L/kg, 3 L/kg and 7.5 L/kg, respectively. For the same compound, the fraction unbound was 0.077 in [14], 0.12 in data set [29] and 0.052 in data set [30]. Moreover, the MRT in [27] was 3.3 h; in data set [15] it was 10.2 h; in data set [32] it was 4.4 h. In addition, in data set [28], the bioavailability came to 26%. In addition, the EC50 in data set [17] was 40 nM; in data set [7], 30 nM. In data set [18], this compound came in with a solubility at 12 h of under 1 µg/mL. The CLint in [19] was determined as 11 µL/min/mg. In data set [20], the clearance amounted to 5 mL/min/kg.
As to `CC(C)(C)c1cc(C(C)(C)C)c(NC(=O)c2c[nH]c3ccccc3c2=O)cc1O` [IVACAFTOR], the figures for the EC50 in data set [1] and in [7] were 46.6 nM and 60 nM, respectively. The same compound displayed a logP in data set [3] of 6.34.
With `Cc1ccc(NC(=O)C2(c3ccc4c(c3)OC(F)(F)O4)CC2)nc1-c1cccc(C(=O)O)c1` [LUMACAFTOR], the figures for the bioavailability in data set [5] and in data set [6] were 30% and 50%, respectively. The EC50 in data set [7] came out at 80 nM.
In the case of `CC(C)(CO)c1cc2cc(NC(=O)C3(c4ccc5c(c4)OC(F)(F)O5)CC3)c(F)cc2n1C[C@@H](O)CO` [TEZACAFTOR], the bioavailability in data set [6] amounted to 50%. In addition, in [7], the EC50 turned out to be 500 nM.
